How the values were obtained:
DrcA (ΔNC16NDrcA) [1] = biological target: T1, DrcA (ΔNC16NDrcA) (Dictyostelium discoideum, UniProt Q54B85, C54N); assay: dechlorination assay with purified mutant, TLC and Orbitrap MS of the conjugates; type: biochemical
T1 construct: gene DDB_G0293840; ΔNDrcA, lacking the first 38 residues
T1 sequence (Q54B85 39-275 C54N): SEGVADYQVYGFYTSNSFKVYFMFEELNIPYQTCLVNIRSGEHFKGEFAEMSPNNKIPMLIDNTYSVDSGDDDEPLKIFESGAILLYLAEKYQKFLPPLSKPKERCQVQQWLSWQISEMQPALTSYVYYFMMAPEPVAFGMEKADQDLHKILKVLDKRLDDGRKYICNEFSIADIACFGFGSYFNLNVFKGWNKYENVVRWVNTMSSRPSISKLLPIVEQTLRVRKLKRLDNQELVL

[2] = biological target: T2, DrcA (DIF-1 dechlorinase) (Dictyostelium discoideum, UniProt Q54B85); assay: DIF-1 dechlorination assay with TLC, purified protein; further dechlorinated at higher enzyme or longer incubation; type: biochemical
T2 construct: gene DDB_G0293840
T2 sequence (Q54B85 1-275): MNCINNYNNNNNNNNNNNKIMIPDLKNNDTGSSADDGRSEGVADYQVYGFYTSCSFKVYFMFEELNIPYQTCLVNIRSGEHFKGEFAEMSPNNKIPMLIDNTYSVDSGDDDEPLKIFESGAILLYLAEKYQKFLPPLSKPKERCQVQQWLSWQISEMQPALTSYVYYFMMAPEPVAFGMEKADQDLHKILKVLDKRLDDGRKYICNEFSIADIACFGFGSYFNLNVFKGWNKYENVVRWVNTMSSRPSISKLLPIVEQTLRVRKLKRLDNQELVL

DrcA (ΔNC16NDrcA) [3] = biological target: T1, DrcA (ΔNC16NDrcA); assay: TLC time course and Orbitrap MS of products of the purified mutant; further converted to GS-DIF-GS; type: biochemical
[4] = substrate: CCCCCC(=O)c1c(O)c(Cl)c(OC)c(Cl)c1O; assay: radioactive [3H]DIF-1 dechlorination assay with TLC, Michaelis-Menten kinetics, purified enzyme (Km); type: biochemical, Dictyostelium discoideum; conditions: glutathione glutathione attacks the carbon-chlorine bond to give a GS-DIF conjugate, which is resolved by Cys54

CCCCCC(=O)c1c(O)c(Cl)c(OC)c(Cl)c1O [DIF-1]
dechlorination assay with purified mutant, TLC and Orbitrap MS of the conjugates (DrcA (ΔNC16NDrcA) [1]): although DIF-1 was consumed in the assay, DIF-3 was not produced

CCCCCC(=O)c1c(O)cc(OC)c(Cl)c1O [DIF-3]
DIF-1 dechlorination assay with TLC, purified protein; further dechlorinated at [2]: only appears after all DIF-1 has been converted into the monochlorinated form, suggesting a lower affinity

CCCCCC(=O)c1c(O)c(Cl)c(OC)c(SC[C@H](NC(=O)CC[C@H](N)C(=O)O)C(=O)NCC(=O)O)c1O [GS-DIF]
TLC time course and Orbitrap MS of products of the purified mutant; further conv (DrcA (ΔNC16NDrcA) [3]): ΔNC16NDrcA must be able to accommodate the conjugate GS-DIF to attack the second carbon-chlorine bond

B1: DrcA (DIF-1 dechlorinase) (Dictyostelium discoideum) (protein)
chain: SEGVADYQVYGFYTSCSFKVYFMFEELNIPYQTCLVNIRSGEHFKGEFAEMSPNNKIPMLIDNTYSVDSGDDDEPLKIFESGAILLYLAEKYQKFLPPLSKPKERCQVQQWLSWQISEMQPALTSYVYYFMMAPEPVAFGMEKADQDLHKILKVLDKRLDDGRKYICNEFSIADIACFGFGSYFNLNVFKGWNKYENVVRWVNTMSSRPSISKLLPIVEQTLRVRKLKRLDNQELVL
notes: ΔNDrcA, lacking the first 38 residues, C-terminal 6×His tag
Km [4]: 0.088 ± 0.0175 µM
kcat [4]: 6.7 s⁻¹
kcat/Km [4]: 7.6e+07 M⁻¹ s⁻¹

Source: publication PMC3205185, “Identification of a Eukaryotic Reductive Dechlorinase and Characterization of Its Mechanism of Action on Its Natural Substrate” (Chemistry & Biology, 2011)
